Data on two compounds can be found in ChEMBL document CHEMBL4118108, “UNC-51-like Kinase 1: From an Autophagic Initiator to Multifunctional Drug Target” (J Med Chem, 2018).

The subject of one test is MDA-MB-231. The experiment in a line: Antiproliferative activity against human MDA-MB-231 cells by MTT assay. The test is classed as functional, cell-based. (Tetrazolium assays rely on reduction of a dye to a coloured formazan, in cell work by metabolically active cells.)
Test [1] deals with T1, Serine/threonine-protein kinase ULK2 (Homo sapiens, UniProt Q8IYT8).
T1 sequence (Q8IYT8 whole entry): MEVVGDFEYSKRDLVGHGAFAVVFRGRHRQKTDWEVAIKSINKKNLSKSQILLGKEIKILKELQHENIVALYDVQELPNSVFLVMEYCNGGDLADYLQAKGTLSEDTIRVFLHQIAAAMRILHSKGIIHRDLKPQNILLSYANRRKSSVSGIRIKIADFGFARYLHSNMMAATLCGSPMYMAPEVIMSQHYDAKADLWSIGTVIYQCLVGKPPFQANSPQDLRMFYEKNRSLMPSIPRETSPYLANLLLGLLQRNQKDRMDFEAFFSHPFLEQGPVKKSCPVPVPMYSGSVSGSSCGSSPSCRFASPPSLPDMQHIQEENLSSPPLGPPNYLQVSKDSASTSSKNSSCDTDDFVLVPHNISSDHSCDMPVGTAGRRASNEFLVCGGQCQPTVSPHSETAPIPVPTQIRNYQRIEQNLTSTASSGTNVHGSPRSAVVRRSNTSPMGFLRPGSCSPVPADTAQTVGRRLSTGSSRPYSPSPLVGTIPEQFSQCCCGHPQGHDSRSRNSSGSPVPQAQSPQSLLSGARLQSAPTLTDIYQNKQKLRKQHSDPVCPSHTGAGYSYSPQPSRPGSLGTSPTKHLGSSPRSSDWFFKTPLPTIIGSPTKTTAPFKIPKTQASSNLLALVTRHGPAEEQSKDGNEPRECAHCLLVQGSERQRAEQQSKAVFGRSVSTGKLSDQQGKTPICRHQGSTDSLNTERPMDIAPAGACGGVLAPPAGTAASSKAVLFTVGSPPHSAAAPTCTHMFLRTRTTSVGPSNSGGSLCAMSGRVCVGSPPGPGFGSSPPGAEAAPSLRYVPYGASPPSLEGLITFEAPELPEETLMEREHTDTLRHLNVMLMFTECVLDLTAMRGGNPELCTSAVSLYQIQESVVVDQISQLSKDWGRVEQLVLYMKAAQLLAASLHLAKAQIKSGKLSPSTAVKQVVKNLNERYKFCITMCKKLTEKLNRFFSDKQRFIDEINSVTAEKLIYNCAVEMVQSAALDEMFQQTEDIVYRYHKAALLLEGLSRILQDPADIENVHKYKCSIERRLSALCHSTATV
The experiment in a line: Inhibition of GST-tagged ULK2 (unknown origin).

By IC50 is commonly meant the point on the concentration scale where inhibition reaches its midpoint. The low end stands for greater potency, the high end for weaker potency.

In the test with MDA-MB-231, `CC(C)CN(CC(=O)N1CCN(CC(OCc2ccc3ccccc3c2)c2ccc(Cl)cc2Cl)CC1)CC(C)C` (configuration not stated) gave an IC50 of 1660 nM. In turn, `CNC(=O)c1ccccc1Oc1nc(Nc2cc(OC)c(OC)c(OC)c2)ncc1Br` gave a half-maximal inhibitory concentration (IC50) in test [1] of 711 nM.
